In US6692753B2, “Potentiation of the immune response” (priority 1997, dated 2004):
“Also recorded” adds a separate entry of the source.

Experiments:
[1] = tested on: PBMC from HIV-infected individuals; experiment: Proliferation of PBMC from HIV-infected individuals, 3H thymidine incorporation; format: cell-based, human; conditions: for stimulation of proliferation: higher doses (10^−4M), PBMC of HIV-infected patients; for stimulation of proliferation (incorporation of 3H thymidine, cpm): very low / low doses, PBMC from HIV-infected patients, in vitro
Excerpt: If desired, additional in vitro assays can be carried out using candidate compounds of the invention, prior to their use in vivo. One such assay employs the candidate compound at a very low concentration, in a test designed to determine whether at low concentrations the compound can stimulate the proliferation of PBMC from HIV infected patients in vitro. As is shown in the data of FIG. 4, stimulation can be measured by, e.g., incorporation of a labelled nucleotide. Peripheral blood mononuclear cells (PBMC) were obtained by standard methods from HIV-infected individuals, and from uninfected individuals. Varying dosages of KBP or VBP were contacted with the PBMC in vitro, and stimulation of proliferation was measured by incorporation of ^3H thymidine (cpm).

[2] = tested on: CD26+ and CD26− PBMC populations; experiment: Cell death of sorted CD26+ and CD26− PBMC populations, 7AAD flow cytometry; format: cell-based, human; conditions: overnight, various (moderate) concentrations
Protocol: PBMC were stained with the anti-CD26 monoclonal antibody, 4 EL, and then sorted into CD26^+ and CD26^− populations using a facstar plus dual lasar flow cytometry. The cells expressing the highest level )top 5%) of CD26 and the cells expressing the lowest level (bottom 10%) of CD26 were isolated as the CD26^+ and CD26^− populations respectively. […] The CD26^+ and CD26^− populations were cultured overnight in the presence or absence of various concentrations of VBP. The amount of death induced by VBP treatment was determined by 7AAD flow cytometry analysis. Data represent mean percent of death from duplicate samples +/−SD.
The amount of cell death was determined by 7AAD flow cytometry analysis. Data represent mean % of death from duplicate samples.

[3] = tested on: CD4/CD8+ T cells; experiment: Cell death of purified resting T-cells, 7AAD flow cytometry; format: cell-based, human; conditions: overnight incubation, 10^−4M or 10^−6M
Protocol: CD19+B cells and CD4/CD8+ T cells were isolated (>90% and >97% purity, respectively). The cells were then incubated overnight in the presence or absence of VBP (10^−4M or 10^−6M). The amount of death induced by VBP treatment was determined by 7AAD flow cytometry analysis. The data represents the mean percent of death from duplicate samples.
The amount of cell death was determined by 7AAD flow cytometry analysis. Data represent % of cell death from duplicate samples.

[4] = tested on: cytoplasmic T-cell enzyme (post-prolyl dipeptidase) in Jurkat T-cell cytoplasmic extract; experiment: Enzymatic activity of Jurkat T-cell cytoplasmic extract, fluorescent cleavage of Ala-ProAFC; format: biochemical, human; conditions: varying concentrations
Protocol: A suitable enzyme-containing cell extract can be prepared as follows. First, Jurkat cells (10^6-10^11 cells) are grown and a cell pellet is obtained by centrifugation. The cell pellet is stored in frozen condition.
For use in the assay, the frozen pellet is thawed by the addition of ice cold lysis buffer, in the amount of approximately 1 ml per 10^8 cells. The liquified material is homogenized with ten strokes of a Dounce homogenizer, and then clarified by centrifugation at 1500 g. The supernatant is removed (and saved), and the 1500 g. pellet is resuspended in lysis buffer and homogenized with ten strokes of a Dounce homogenizer. Clarification is again carried out by centrifugation at 1500 g, 4° C.
The 1500 g supernatants are then combined, and EDTA is added to 5mM. The resultant liquid is centrifuged at 75,000 g at 4° C. for twenty minutes, and the supernatant is then removed and centrifuged at 175,000 g. at 4° C., for 60 minutes. […]
In the assay we carried out, we employed a fluorescence spectrometer for excitation at 400 nm and emission at 505 nm. […]
In the test samples, multiple samples are run containing varying concentrations, down to 10^−8 M, of the test compound. […] Enzymatic activity is measured as the accumulation of fluoresence intensity (i.e., substrate cleavage product) over time (1 min.).

| Structure (SMILES) | stimulation of proliferation [1] | stimulation of proliferation (incorporation of 3H thymidine, cpm) [1] | cell death / apoptosis (7AAD) [2] | cell death / apoptosis (7AAD) ([2]; listed as VBP) | cell death / apoptosis (7AAD) [3] | cell death / apoptosis (7AAD) ([3]; listed as VBP) | inhibition of enzymatic activity (AFC release from Ala-ProAFC) [4] | inhibition of enzymatic activity (AFC release from Ala-ProAFC) ([4]; listed as val-boroPro) |
| --- | --- | --- | --- | --- | --- | --- | --- | --- |
| NCCCC[C@H](N)C(=O)N1CCC[C@H]1B(O)O [Lys-boroPro] | do not have this effect | stimulated proliferation; also recorded: cause proliferation |  |  |  |  |  |  |
| CC(C)[C@H](N)C(=O)N1CCC[C@H]1B(O)O [Val-boroPro] | do not have this effect | stimulated proliferation; also recorded: cause proliferation | equally susceptible | dose-dependent apoptosis in both CD26^+ and CD26^− populations; also recorded: equally susceptible | highly sensitive | dose-dependent apoptosis | inhibited | inhibited the cytoplasmic enzyme |
